Assay results: patent US12459932B2, “KIF18A inhibitors” (AMGEN INC., priority 2018, dated 2025)

Target: T1, Recombinant human KIF18A (1-467 His-tagged) (Homo sapiens, UniProt Q8NI77)
T1 construct: Recombinant human KIF18A (1-467 His-tagged) protein; His
Experiment: KIF18A Enzyme Assay: microtubule-stimulated ATPase activity (ADP-Glo)
Type: biochemical
Conditions: 30 nM KIF18A, 30 μg/mL pig microtubules, ATP 75 μM (Km), ADP-Glo luminescence
Protocol: KIF18A Enzyme Assay: Microtubule-stimulated ATPase activity assay is used to measure KIF18A enzyme activity after treatment with compound. Compounds were 2-fold serially diluted in DMSO (Sigma Inc) over 22-point concentration range. […] The assay measures ADP formed from the ATPase reaction. […] Read luminescence using EnVision microplate reader with ultra-luminescence module (Perkin Elmer Inc). Concentration-response curve-fitting and IC50 determination was performed using Genedata Screener Software (Standard 15.0.1, Genedata Inc) with a four-parameter logistic regression fit model.

T1 sequence (Q8NI77 1-467): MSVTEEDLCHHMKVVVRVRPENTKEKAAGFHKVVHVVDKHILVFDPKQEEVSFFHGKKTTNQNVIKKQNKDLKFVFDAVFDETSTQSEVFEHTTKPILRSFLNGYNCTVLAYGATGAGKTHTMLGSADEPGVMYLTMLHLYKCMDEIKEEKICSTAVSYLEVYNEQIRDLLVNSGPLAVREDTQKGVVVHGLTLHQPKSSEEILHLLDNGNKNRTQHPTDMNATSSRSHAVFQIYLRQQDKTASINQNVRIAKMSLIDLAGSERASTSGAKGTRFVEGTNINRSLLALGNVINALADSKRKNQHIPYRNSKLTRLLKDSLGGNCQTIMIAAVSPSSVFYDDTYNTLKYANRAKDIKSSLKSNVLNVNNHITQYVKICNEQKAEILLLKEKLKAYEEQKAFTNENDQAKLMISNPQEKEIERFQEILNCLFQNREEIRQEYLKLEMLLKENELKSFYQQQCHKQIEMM
T1 sequence (P02550 whole entry partner): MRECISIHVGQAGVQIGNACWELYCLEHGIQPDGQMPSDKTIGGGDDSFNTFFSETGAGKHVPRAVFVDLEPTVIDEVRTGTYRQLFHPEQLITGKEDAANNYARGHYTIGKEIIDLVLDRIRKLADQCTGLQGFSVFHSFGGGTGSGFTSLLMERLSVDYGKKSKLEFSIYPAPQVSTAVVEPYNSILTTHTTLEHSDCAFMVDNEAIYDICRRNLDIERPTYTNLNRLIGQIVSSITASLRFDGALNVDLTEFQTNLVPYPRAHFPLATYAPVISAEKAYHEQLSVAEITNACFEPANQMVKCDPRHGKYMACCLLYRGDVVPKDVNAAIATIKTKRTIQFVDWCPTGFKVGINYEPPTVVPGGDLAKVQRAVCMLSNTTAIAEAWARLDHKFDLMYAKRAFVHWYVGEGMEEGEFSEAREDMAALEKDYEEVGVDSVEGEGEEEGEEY
T1 sequence (P02554 whole entry partner): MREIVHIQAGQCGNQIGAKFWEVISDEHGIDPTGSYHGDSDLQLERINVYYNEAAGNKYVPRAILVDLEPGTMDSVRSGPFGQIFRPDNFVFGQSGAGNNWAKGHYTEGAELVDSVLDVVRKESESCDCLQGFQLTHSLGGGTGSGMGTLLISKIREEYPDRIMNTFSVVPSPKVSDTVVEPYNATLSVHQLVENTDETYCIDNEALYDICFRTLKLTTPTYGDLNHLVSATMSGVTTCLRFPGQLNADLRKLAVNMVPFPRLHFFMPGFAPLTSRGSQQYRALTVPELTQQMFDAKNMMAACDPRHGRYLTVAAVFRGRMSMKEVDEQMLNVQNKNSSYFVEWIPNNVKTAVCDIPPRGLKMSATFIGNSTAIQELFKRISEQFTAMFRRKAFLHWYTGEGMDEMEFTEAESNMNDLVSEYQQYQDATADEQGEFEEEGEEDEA

Row | Compound | IC50 [µM]
1 | C[C@H](CO)S(=O)(=O)Nc1ccc(C(=O)Nc2cccc(OCCC(F)(F)F)n2)c(N2CCC3(CC2)CC3)c1 (single isomer, unassigned) [Example 8-1] | 0.016
2 | C[C@@H](CO)S(=O)(=O)Nc1ccc(C(=O)Nc2cccc(OCCC(F)(F)F)n2)c(N2CCC3(CC2)CC3)c1 (single isomer, unassigned) [Example 8-2] | 0.014
3 | C[C@H](CO)S(=O)(=O)Nc1ccc(C(=O)Nc2cccc(N3CC(F)C3)n2)c(N2CCC3(CC2)CC3)c1 (single isomer, unassigned) [Example 9-1] | 0.033
4 | C[C@@H](CO)S(=O)(=O)Nc1ccc(C(=O)Nc2cccc(N3CC(F)C3)n2)c(N2CCC3(CC2)CC3)c1 (single isomer, unassigned) [Example 9-2] | 0.0472
5 | C[C@H](CO)S(=O)(=O)Nc1ccc(C(=O)Nc2cccc(N3CC(F)(F)C3)n2)c(N2CCC3(CC2)CC3)c1 (single isomer, unassigned) [Example 9-3] | 0.025
6 | C[C@@H](CO)S(=O)(=O)Nc1ccc(C(=O)Nc2cccc(N3CC(F)(F)C3)n2)c(N2CCC3(CC2)CC3)c1 (single isomer, unassigned) [Example 9-4] | 0.068
7 | Cc1cc(NC(=O)c2ccc(NS(=O)(=O)[C@H](C)CO)cc2N2CCC3(CC2)CC3)nc(N2CC(F)(F)C2)c1 (single isomer, unassigned) [Example 9-5] | 0.017
8 | Cc1cc(NC(=O)c2ccc(NS(=O)(=O)[C@@H](C)CO)cc2N2CCC3(CC2)CC3)nc(N2CC(F)(F)C2)c1 (single isomer, unassigned) [Example 9-6] | 0.057
9 | Cc1cc(NC(=O)c2ccc(NS(=O)(=O)[C@@H](C)CO)cc2N2CCC3(CC2)CC3)nc(N2CCC(F)(F)CC2)c1 (single isomer, unassigned) [Example 9-7] | 0.027
10 | Cc1cc(NC(=O)c2ccc(NS(=O)(=O)[C@H](C)CO)cc2N2CCC3(CC2)CC3)nc(N2CCC(F)(F)CC2)c1 (single isomer, unassigned) [Example 9-8] | 0.038
11 | C[C@@H](CO)S(=O)(=O)Nc1ccc(C(=O)Nc2cccc(N3CCC(F)(F)CC3)n2)c(N2CCC3(CC2)CC3)c1 (single isomer, unassigned) [Example 9-9] | 0.041
12 | C[C@H](CO)S(=O)(=O)Nc1ccc(C(=O)Nc2cccc(N3CCC(F)(F)CC3)n2)c(N2CCC3(CC2)CC3)c1 (single isomer, unassigned) [Example 9-10] | 0.037
13 | Cc1cc(NC(=O)c2ccc(NS(=O)(=O)[C@H](C)CO)cc2N2CCC3(CC2)CC3)nc(N2CCO[C@H](C)C2)c1 (single isomer, unassigned) [Example 9-11] | 0.038
14 | Cc1cc(NC(=O)c2ccc(NS(=O)(=O)[C@@H](C)CO)cc2N2CCC3(CC2)CC3)nc(N2CCO[C@H](C)C2)c1 (single isomer, unassigned) [Example 9-12] | 0.039
15 | Cc1cc(NC(=O)c2ccc(NS(=O)(=O)[C@H](C)CO)cc2N2CCC3(CC2)CC3)nc(N2CCOCC2)c1 (single isomer, unassigned) [Example 9-13] | 0.018
16 | Cc1cc(NC(=O)c2ccc(NS(=O)(=O)[C@@H](C)CO)cc2N2CCC3(CC2)CC3)nc(N2CCOCC2)c1 (single isomer, unassigned) [Example 9-14] | 0.018
17 | C[C@@H]1CN(c2cccc(NC(=O)c3ccc(NS(=O)(=O)[C@H](C)CO)cc3N3CCC4(CC3)CC4)n2)CCO1 (single isomer, unassigned) [Example 9-15] | 0.037
18 | C[C@@H]1CN(c2cccc(NC(=O)c3ccc(NS(=O)(=O)[C@@H](C)CO)cc3N3CCC4(CC3)CC4)n2)CCO1 (single isomer, unassigned) [Example 9-16] | 0.048
19 | C[C@H](CO)S(=O)(=O)Nc1ccc(C(=O)Nc2cccc(N3CCO[C@@H](C)C3)n2)c(N2CCC3(CC2)CC3)c1 (single isomer, unassigned) [Example 9-17] | 0.024

Row | Compound | IC50 [µM]
20 | C[C@H]1CN(c2cccc(NC(=O)c3ccc(NS(=O)(=O)[C@@H](C)CO)cc3N3CCC4(CC3)CC4)n2)CCO1 (single isomer, unassigned) [Example 9-18] | 0.036
21 | C[C@@H]1CN(c2cccc(NC(=O)c3ccc(S(=N)(=O)C4CC4)cc3N3CCC4(CC3)CC4)n2)CCO1 (single isomer, unassigned) [Example 12-1] | 0.085
22 | C[C@@H]1CN(c2cccc(NC(=O)c3ccc(S(=N)(=O)C4CC4)cc3N3CCC4(CC3)CC4)n2)CCO1 (single isomer, unassigned) [Example 12-2] | 0.043
23 | C[C@@H]1CN(c2cccc(NC(=O)c3ccc([S@](=N)(=O)C(C)(C)C)cc3N3CCC4(CC3)CC4)n2)CCO1 (single isomer, unassigned) [Example 13-1] | 0.199
24 | C[C@@H]1CN(c2cccc(NC(=O)c3ccc([S@@](=N)(=O)C(C)(C)C)cc3N3CCC4(CC3)CC4)n2)CCO1 (single isomer, unassigned) [Example 13-2] | 0.182
25 | C[C@@H]1CN(c2cccc(NC(=O)c3ccc(S(C)(=N)=O)cc3N3CCC4(CC3)CC4)n2)CCO1 (single isomer, unassigned) [Example 13-3] | 0.418
26 | N=S(=O)(c1ccc(C(=O)Nc2cccc(OCCC(F)(F)F)n2)c(N2CCC3(CC2)CC3)c1)C1CC1 (single isomer, unassigned) [Example 27-1, 2-(6-Azaspiro[2.5]octan-6-yl)-4-(S-cyclopropylsulfonimidoyl)-N-(6-(3,3,3-trifluoropropoxy)-2-pyridinyl)benzamide] | 0.022
27 | N=[S@@](=O)(c1ccc(C(=O)Nc2cccc(OCCC(F)(F)F)n2)c(N2CCC3(CC2)CC3)c1)C1CC1 (single isomer, unassigned) [Example 27-2, 2-(6-Azaspiro[2.5]octan-6-yl)-4-(R-cyclopropylsulfonimidoyl)-N-(6-(3,3,3-trifluoropropoxy)-2-pyridinyl)benzamide] | 0.016
28 | Cc1cc(NC(=O)c2ccc(S(=N)(=O)C3CC3)cc2N2CCC3(CC2)CC3)nc(N2CC(F)(F)C2)c1 (single isomer, unassigned) [Example 28-1, 2-(6-Azaspiro[2.5]octan-6-yl)-4-(S-cyclopropylsulfonimidoyl)-N-(6-(3,3-difluoro-1-azetidinyl)-4-methyl-2-pyridinyl)benzamide] | 0.071
29 | Cc1cc(NC(=O)c2ccc(S(=N)(=O)C3CC3)cc2N2CCC3(CC2)CC3)nc(N2CCO[C@H](C)C2)c1 (single isomer, unassigned) [Example 29-1] | 0.165
30 | Cc1cc(NC(=O)c2ccc([S@](=N)(=O)C3CC3)cc2N2CCC3(CC2)CC3)nc(N2CCC(F)(F)CC2)c1 (single isomer, unassigned) [Example 30-1, 2-(6-Azaspiro[2.5]octan-6-yl)-4-(S-cyclopropylsulfonimidoyl)-N-(6-(4,4-difluoro-1-piperidinyl)-4-methyl-2-pyridinyl)benzamide] | 0.081
31 | C[C@@H]1CN(c2cccc(NC(=O)c3ccc(S(C)(=N)=O)cc3N3CCC4(CC3)CC4)n2)CCO1 (stereo in doubt) [Example 13-4, 2-(6-Azaspiro[2.5]octan-6-yl)-N-(6-((2R)-2-methyl-4-morpholinyl)-2-pyridinyl)-4-(R-methylsulfonimidoyl)benzamide] | 0.154
32 | Cc1cc(NC(=O)c2ccc(S(=N)(=O)C3CC3)cc2N2CCC3(CC2)CC3)nc(N2CC(F)(F)C2)c1 (stereo in doubt) [Example 28-2, 2-(6-Azaspiro[2.5]octan-6-yl)-4-(R-cyclopropylsulfonimidoyl)-N-(6-(3,3-difluoro-1-azetidinyl)-4-methyl-2-pyridinyl)benzamide] | 0.037
33 | Cc1cc(NC(=O)c2ccc(S(=N)(=O)C3CC3)cc2N2CCC3(CC2)CC3)nc(N2CCO[C@H](C)C2)c1 (stereo in doubt) [Example 29-2, 2-(6-Azaspiro[2.5]octan-6-yl)-4-(R-cyclopropylsulfonimidoyl)-N-(4-methyl-6-((2R)-2-methyl-4-morpholinyl)-2-pyridinyl)benzamide] | 0.059
34 | Cc1cc(NC(=O)c2ccc(S(=N)(=O)C3CC3)cc2N2CCC3(CC2)CC3)nc(N2CCC(F)(F)CC2)c1 (stereo in doubt) [Example 30-2, 2-(6-Azaspiro[2.5]octan-6-yl)-4-(R-cyclopropylsulfonimidoyl)-N-(6-(4,4-difluoro-1-piperidinyl)-4-methyl-2-pyridinyl)benzamide] | 0.042
35 | O=C(Nc1cccc(OCCC(F)(F)F)n1)c1ccc(S(=O)(=O)NCCO)cc1N1CCC2(CC1)CC2 [Example 1, 4-(N-(2-Hydroxyethyl)sulfamoyl)-2-(6-azaspiro[2.5]octan-6-yl)-N-(6-(3,3,3-trifluoropropoxy)pyridin-2-yl)benzamide] | 0.012
36 | C[C@@H]1CN(c2cccc(NC(=O)c3ccc(S(=O)(=O)NCCO)cc3N3CCC4(CC3)CC4)n2)CCO1 [Example 1-1, (R)-4-(N-(2-Hydroxyethyl)sulfamoyl)-N-(6-(2-methylmorpholino)pyridin-2-yl)-2-(6-azaspiro[2.5]octan-6-yl)benzamide] | 0.016
37 | Cc1cc(NC(=O)c2ccc(S(=O)(=O)NCCO)cc2N2CCC3(CC2)CC3)nc(N2CCC(F)(F)CC2)c1 [Example 1-2, N-(6-(4,4-Difluoropiperidin-1-yl)-4-methylpyridin-2-yl)-4-(N-(2-hydroxyethyl)sulfamoyl)-2-(6-azaspiro[2.5]octan-6-yl)benzamide] | 0.032
38 | CNS(=O)(=O)c1ccc(C(=O)Nc2cccc(N3CCO[C@H](C)C3)n2)c(N2CCC3(CC2)CC3)c1 [Example 1-3, (R)-N-(6-(2-Methylmorpholino)pyridin-2-yl)-4-(N-methylsulfamoyl)-2-(6-azaspiro[2.5]octan-6-yl)benzamide] | 0.044
